Data from US20130109682A1, “CYCLIC ETHER COMPOUNDS USEFUL AS KINASE INHIBITORS” (NOVARTIS AG, priority 2010, published 2013).
Where two headings read alike, the source gives them in different places.

Tests used:
Assay type in all cases: biochemical
PKCα = PKCα (Homo sapiens, UniProt P17252); test: PKCα kinase Caliper assay
Protocol: PKCα and cABLT315 Kinase Caliper Assays
Assays were performed in 384 well microtiter plates. Each assay plate contained 8-point serial dilutions for test compounds, as well as two 16-point serial dilutions of staurosporine as reference compound, plus 16 high- and 16 low controls. Liquid handling and incubation steps were done on a Thermo CatX workstation equipped with a Innovadyne Nanodrop Express. Between pipetting steps, tips were cleaned in wash cycles using wash buffer. Plates with terminated kinase reactions were transferred to the Caliper LC3000 workstations for reading. Phosphorylated and unphosphorylated peptides were separated using the Caliper microfluidic mobilitishift technology and Kinase activities were calculated from the amounts of formed phospho-peptide.
1. 0.05 μA Compound (start with 1.8 mM in 90% DMSO/10% H2O)
2. +4.5 μl 2× peptide/ATP solution
3. +4.5 μl 2× enzyme solution
4. Incubate for 60 min at 30° C.
4. +16 μl stop/run buffer
Independent of the kinase, all reactions were done performed in 50 mM HEPES, pH 7.5, 1 mM DTT, 0.02% Tween20, 0.02% BSA, and 0.6% DMSO.

GSK3β = GSK3β (Homo sapiens, UniProt P49841); test: GSK3β ATP depletion assay; details: ATP depletion assay; read-out: GSK3b IC50
Chain of GSK3β (P49841 whole entry, species assumed): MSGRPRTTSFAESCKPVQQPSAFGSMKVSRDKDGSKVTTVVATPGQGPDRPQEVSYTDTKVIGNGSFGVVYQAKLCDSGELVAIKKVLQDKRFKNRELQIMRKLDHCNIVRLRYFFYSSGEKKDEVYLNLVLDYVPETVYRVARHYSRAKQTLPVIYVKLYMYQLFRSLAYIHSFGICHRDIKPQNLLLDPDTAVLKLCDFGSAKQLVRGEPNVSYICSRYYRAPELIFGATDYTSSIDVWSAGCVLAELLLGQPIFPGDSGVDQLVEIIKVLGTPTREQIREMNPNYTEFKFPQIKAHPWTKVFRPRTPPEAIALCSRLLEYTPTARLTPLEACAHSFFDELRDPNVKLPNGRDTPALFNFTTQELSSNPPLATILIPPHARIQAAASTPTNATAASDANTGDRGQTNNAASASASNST
Method in brief: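 Human GSK3β (5 nM) preincubated 15 min with 10 μM biotinylated phospho-CREB peptide in pH 7.5 Tris buffer (15 mM MgCl2, 1 mM DTT, 0.1% BSA, 2.5% DMSO). Reaction started with 2 μM ATP and run to about 50% ATP depletion. Remaining ATP measured by KinaseGlo luminescence.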

FLT3D835Y kinase = target: T1, FLT3D835Y kinase (Homo sapiens, UniProt P36888, D835Y); test: FLT3D835Y kinase inhibition assay (LanthaScreen TR-FRET); details: read-out: FLT3 IC50
T1 sequence (P36888 27-993 D835Y): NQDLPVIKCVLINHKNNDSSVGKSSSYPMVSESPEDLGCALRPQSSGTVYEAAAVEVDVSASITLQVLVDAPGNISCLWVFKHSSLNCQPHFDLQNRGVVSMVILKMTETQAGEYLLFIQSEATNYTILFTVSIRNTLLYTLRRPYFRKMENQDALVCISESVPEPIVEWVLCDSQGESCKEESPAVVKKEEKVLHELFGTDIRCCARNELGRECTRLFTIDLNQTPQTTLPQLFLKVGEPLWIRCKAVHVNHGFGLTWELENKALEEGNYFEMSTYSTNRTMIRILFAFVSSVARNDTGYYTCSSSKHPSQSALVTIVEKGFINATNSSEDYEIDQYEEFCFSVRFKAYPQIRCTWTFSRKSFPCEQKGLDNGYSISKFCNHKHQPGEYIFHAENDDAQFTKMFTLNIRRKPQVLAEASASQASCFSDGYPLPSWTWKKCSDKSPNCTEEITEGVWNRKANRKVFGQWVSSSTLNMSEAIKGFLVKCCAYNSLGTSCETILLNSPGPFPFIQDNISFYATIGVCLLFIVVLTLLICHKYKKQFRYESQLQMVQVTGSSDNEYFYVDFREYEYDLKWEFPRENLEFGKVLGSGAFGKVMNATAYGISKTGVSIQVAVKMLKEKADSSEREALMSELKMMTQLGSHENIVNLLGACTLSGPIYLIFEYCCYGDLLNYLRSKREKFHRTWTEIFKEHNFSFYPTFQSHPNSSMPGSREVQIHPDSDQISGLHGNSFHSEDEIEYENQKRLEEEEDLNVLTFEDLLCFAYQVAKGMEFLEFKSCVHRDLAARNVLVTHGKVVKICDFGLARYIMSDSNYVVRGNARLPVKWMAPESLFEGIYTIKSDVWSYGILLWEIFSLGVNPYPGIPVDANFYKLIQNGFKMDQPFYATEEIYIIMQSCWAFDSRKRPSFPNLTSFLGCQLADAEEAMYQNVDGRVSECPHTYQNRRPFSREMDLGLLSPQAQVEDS
Protocol: FLT3D835Y Kinase Inhibition Assay
LanthaScreen™ is the detection of Time-Resolved Fluorescence Resonance Energy Transfer (TR-FRET) using lanthanide chelates to measure interactions between various binding partners. The application of TR-FRET to assay kinase activity was first described by Mathis (1995). A TR-FRET assay was used to measure FLT3D835Y kinase inhibitory activity. The assay panel was run on a Biomek FX liquid handling workstations. To the assay plates containing […] compound or control solutions, 4.5 μL of buffer A (50 mM TRIS-HCl pH 7.4, 2 mM DTT, 0.02% Tween 20, 0.02 mM Na3VO4, H2O nanpure) including a generic concentration of ATP (2 μM f.c.) was added per well, followed by […] of buffer B (4 uM ATP in Buffer A) including a generic concentration of polyEAY (50 nM f.c.), FLT3D835Y kinase, and divalent cations. Final concentration of kinase and cations were: [FLT3D835Y kinase]=5.7 nM, [Mg]=3 mM, [Mn]=3 mM. After 1 hour of incubation the kinase reactions were stopped by the addition of 4.5 μL of stop solution D (50 mM EDTA, 20 mM TRIS-HCl pH 7.4, 0.04% NP-40) immediately followed by 4.5 μL of buffer A (50 mM TRIS-HCl pH 7.4, 2 mM DTT, 0.02% Tween 20, 0.02 mM Na3VO4, H2O nanpure) including the Tb-labeled P-20 antibody to give a total detection volume of […]. After an incubation time of 45 min in the dark, the plates were transferred into the Pherastar fluorescence reader for counting. The effect of compound on the enzymatic activity was obtained from the linear progress curves and determined from one reading (end point measurement).

[1] = PKCα Caliper assay, read-out: PKC IC50

| IC50 (PKCα; [1]) [nM] | IC50 (GSK3β) [nM] | IC50 (FLT3D835Y kinase) [nM] | IC50 (PKCα) [nM] | SMILES |
| --- | --- | --- | --- | --- |
| 550 | 330 | 160 | – | Nc1ncc(-c2ccccc2)nc1C(=O)Nc1cnccc1[C@@H]1C[C@H](N)[C@@H]2CCC[C@@H]2O1 [Example 233, 3-amino-N-(4-((2S,4S,4aS,7aS)-4-aminooctahydrocyclopenta[b]pyran-2-yl)pyridin-3-yl)-6-phenylpyrazine-2-carboxamide] |
| 290 | 270 | 1200 | – | CC(C)[C@@H]1O[C@H](c2ccncc2NC(=O)c2nc(-c3ccccc3)cnc2N)C[C@H](N)[C@H]1O [Example 240, 3-amino-N-(4-((2S,4S,5R,6S)-4-amino-5-hydroxy-6-isopropyltetrahydro-2H-pyran-2-yl)pyridin-3-yl)-6-phenylpyrazine-2-carboxamide] |
| 7200 | 870 | 4100 | – | Nc1ncc(-c2ccccc2)nc1C(=O)Nc1cnccc1[C@@H]1C[C@H](N)[C@]2(O)CCCC[C@@H]2O1 [Example 243, 3-amino-N-(4-((2S,4S,4aR,8aS)-4-amino-4a-hydroxyoctahydro-2H-chromen-2-yl)pyridin-3-yl)-6-phenylpyrazine-2-carboxamide] |
| 100 | 44 | 590 | – | CC(C)[C@H]1C[C@@H](N)C[C@@H](c2ccncc2NC(=O)c2nc(-c3ccccc3)cnc2N)O1 [Example 292, 3-amino-N-(4-((2S,4R,6R)-4-amino-6-isopropyltetrahydro-2H-pyran-2-yl)pyridin-3-yl)-6-phenylpyrazine-2-carboxamide] |
| 71 | 39 | 12 | – | CC[C@@H]1O[C@H](c2ccncc2NC(=O)c2nc(-c3ccccc3)cnc2N)C[C@H](N)[C@H]1O [Example 342, 3-amino-N-(4-((2S,4S,5R,6S)-4-amino-6-ethyl-5-hydroxytetrahydro-2H-pyran-2-yl)pyridin-3-yl)-6-phenylpyrazine-2-carboxamide] |
| 23 | 12 | 1.8 | – | CC[C@H]1O[C@@H](c2ccncc2NC(=O)c2nc(-c3ccccc3)cnc2N)C[C@@H](N)[C@@H]1O [Example 343, 3-amino-N-(4-((2R,4R,5S,6R)-4-amino-6-ethyl-5-hydroxytetrahydro-2H-pyran-2-yl)pyridin-3-yl)-6-phenylpyrazine-2-carboxamide] |
| 110 | 29 | 10 | – | C[C@]1(O)[C@H](N)C[C@H](c2ccncc2NC(=O)c2nc(-c3ccccc3)cnc2N)O[C@@H]1C1CC1 [Example 344, 3-amino-N-(4-((2R,4R,5S,6R)-4-amino-6-cyclopropyl-5-hydroxy-5-methyltetrahydro-2H-pyran-2-yl)pyridin-3-yl)-6-phenylpyrazine-2-carboxamide] |
| 60 | 9.2 | 8.5 | – | Nc1ncc(-c2ccccc2)nc1C(=O)Nc1cnccc1[C@H]1C[C@@H](N)[C@H](O)[C@@H](C2CC2)O1 [Example 346, 3-amino-N-(4-((2R,4R,5S,6R)-4-amino-6-cyclopropyl-5-hydroxytetrahydro-2H-pyran-2-yl)pyridin-3-yl)-6-phenylpyrazine-2-carboxamide] |

The remaining lines, values behind:

| SMILES | IC50 (PKCα; [1]) [nM] | IC50 (GSK3β) [nM] | IC50 (FLT3D835Y kinase) [nM] | IC50 (PKCα) [nM] |
| --- | --- | --- | --- | --- |
| Nc1cc(F)c(-c2c(F)cccc2F)nc1C(=O)Nc1cnccc1[C@H]1C[C@@H](N)[C@@]2(O)CCCC[C@H]2O1 [Example 238, 3-amino-N-(4-((2R,4R,4aS,8aR)-4-amino-4a-hydroxyoctahydro-2H-chromen-2-yl)pyridin-3-yl)-6-(2,6-difluorophenyl)-5-fluoropicolinamide] | – | 393 | 990 | > 10000 |
| COc1cc(F)c(-c2nc(C(=O)Nc3cnccc3[C@H]3C[C@@H](N)[C@](C)(O)[C@@H](C)O3)ccc2F)c(F)c1 [Example 242, N-(4-((2R,4R,5S,6R)-4-amino-5-hydroxy-5,6-dimethyltetrahydro-2H-pyran-2-yl)pyridin-3-yl)-6-(2,6-difluoro-4-methoxyphenyl)-5-fluoropicolinamide] | > 10000 | 471 | 1200 | – |
| CC(C)[C@@H]1C[C@H](N)C[C@H](c2ccncc2NC(=O)c2nc(-c3ccccc3)cnc2N)O1 [Example 291, 3-amino-N-(4-((2R,4S,6S)-4-amino-6-isopropyltetrahydro-2H-pyran-2-yl)pyridin-3-yl)-6-phenylpyrazine-2-carboxamide] | 43 | 4.4 | 5.3 | – |
| CC1(C)C[C@@H](N)C[C@H](c2ccncc2NC(=O)c2nc(-c3ccccc3)cnc2N)O1 [Example 296, 3-amino-N-(4-((2R,4S)-4-amino-6,6-dimethyltetrahydro-2H-pyran-2-yl)pyridin-3-yl)-6-phenylpyrazine-2-carboxamide] | 40 | 9.4 | 0.8 | – |
| CC1(C)C[C@H](N)C[C@@H](c2ccncc2NC(=O)c2nc(-c3ccccc3)cnc2N)O1 [Example 297, 3-amino-N-(4-((2S,4R)-4-amino-6,6-dimethyltetrahydro-2H-pyran-2-yl)pyridin-3-yl)-6-phenylpyrazine-2-carboxamide] | 10 | 7.9 | 23 | – |
| CCC[C@H]1O[C@@H](c2ccncc2NC(=O)c2nc(-c3ccccc3)cnc2N)C[C@@H](O)[C@@H]1O [Example 340, 3-amino-N-(4-((2R,4R,5S,6R)-4,5-dihydroxy-6-propyltetrahydro-2H-pyran-2-yl)pyridin-3-yl)-6-phenylpyrazine-2-carboxamide] | 860 | 0.9 | 110 | – |
| Nc1ncc(-c2ccccc2)nc1C(=O)Nc1cnccc1[C@H]1C[C@@H](O)[C@H](O)[C@@H](CO)O1 [Example 341, 3-amino-N-(4-((2R,4R,5S,6R)-4,5-dihydroxy-6-(hydroxymethyl)tetrahydro-2H-pyran-2-yl)pyridin-3-yl)-6-phenylpyrazine-2-carboxamide] | 650 | 3 | 120 | – |
| CC[C@@H]1O[C@H](c2ccncc2NC(=O)c2nc(-c3ccccc3)cnc2N)C[C@H](N)[C@@]1(C)O [Example 345, 3-amino-N-(4-((2S,4S,5R,6S)-4-amino-6-ethyl-5-hydroxy-5-methyltetrahydro-2H-pyran-2-yl)pyridin-3-yl)-6-phenylpyrazine-2-carboxamide] | 660 | 370 | 920 | – |
